Data as given in patent publication US8802597B2, “Herbicidal pyrimidines” (E I du Pont de Nemours and Company, priority 2003, dated 2014).
Where two headings read alike, the source gives them in different places.

Experiments:
Assay type in all cases: in vivo
[1] = system: chickweed (Stellaria media); experiment: Test C postemergence; details: Stellaria media, post-emergence
How it was run: (§1)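 We sprayed seeded pots preemergence and 2–18 cm seedlings postemergence with test chemicals in a non-phytotoxic solvent mixture including surfactant. Greenhouse plants were visually compared with untreated controls at 12 to 14 days and scored 0 (no effect) to 100 (complete control).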

[2] = system: woolly cupgrass (Eriochloa villosa); experiment: Test C pre/postemergence; details: Eriochloa villosa; for pest or weed control at 62 g/ha: 62 g ai/ha; for pest or weed control at 125 g/ha: 125 g ai/ha; for pest or weed control at 250 g/ha: 250 g ai/ha; for pest or weed control at 500 g/ha: 500 g ai/ha
How it was run: as §1

[3] = system: giant foxtail (Setaria faberii); experiment: Test C pre/postemergence; details: Setaria faberi; for pest or weed control at 125 g/ha: 125 g ai/ha; for pest or weed control at 500 g/ha: 500 g ai/ha; for pest or weed control at 62 g/ha: 62 g ai/ha; for pest or weed control at 250 g/ha: 250 g ai/ha
How it was run: as §1

[4] = system: johnsongrass (Sorghum halepense); experiment: Test C pre/postemergence; details: Sorghum halepense; for pest or weed control at 62 g/ha: 62 g ai/ha; for pest or weed control at 125 g/ha: 125 g ai/ha; for pest or weed control at 250 g/ha: 250 g ai/ha; for pest or weed control at 500 g/ha: 500 g ai/ha
How it was run: as §1

[5] = system: pigweed (Amaranthus retroflexus); experiment: Test C pre/postemergence; details: Amaranthus retroflexus; for pest or weed control at 62 g/ha: 62 g ai/ha; for pest or weed control at 125 g/ha: 125 g ai/ha; for pest or weed control at 250 g/ha: 250 g ai/ha; for pest or weed control at 500 g/ha: 500 g ai/ha
How it was run: as §1

[6] = system: yellow nutsedge (Cyperus esculentus); experiment: Test C pre/postemergence; details: Cyperus; for pest or weed control at 62 g/ha: 62 g ai/ha; for pest or weed control at 125 g/ha: 125 g ai/ha; for pest or weed control at 250 g/ha: 250 g ai/ha; for pest or weed control at 500 g/ha: 500 g ai/ha
How it was run: as §1

[7] = system: soybean (Glycine max); experiment: Test C pre/postemergence; details: Glycine max, post-emergence, Postemergence, 62 g ai/ha; scale 0 to 100 (0 no effect, 100 complete control); read-out: Soybean plant response rating
How it was run: as §1

[8] = post-emergence, Postemergence, scale 0 to 100 (0 no effect, 100 complete control), read-out: Cupgrass, Woolly plant response rating
[9] = post-emergence, Postemergence, scale 0 to 100, read-out: Plant response rating, Cupgrass, Woolly
[10] = pre-emergence, Preemergence, scale 0 to 100, read-out: Plant response rating, Cupgrass, Woolly
[11] = post-emergence, Postemergence, scale 0 to 100 (0 no effect, 100 complete control), read-out: Foxtail, Giant plant response rating
[12] = post-emergence, Postemergence, scale 0 to 100, read-out: Plant response rating, Foxtail, Giant
[13] = pre-emergence, Preemergence, scale 0 to 100, read-out: Plant response rating, Foxtail, Giant
[14] = post-emergence, Postemergence, scale 0 to 100 (0 no effect, 100 complete control), read-out: Johnsongrass plant response rating
[15] = post-emergence, Postemergence, scale 0 to 100, read-out: Plant response rating, Johnsongrass
[16] = pre-emergence, Preemergence, scale 0 to 100, read-out: Plant response rating, Johnsongrass
[17] = post-emergence, Postemergence, scale 0 to 100 (0 no effect, 100 complete control), read-out: Pigweed plant response rating
[18] = post-emergence, Postemergence, scale 0 to 100, read-out: Plant response rating, Pigweed
[19] = pre-emergence, Preemergence, scale 0 to 100, read-out: Plant response rating, Pigweed
[20] = post-emergence, Postemergence, scale 0 to 100 (0 no effect, 100 complete control), read-out: Nutsedge, Yellow plant response rating
[21] = post-emergence, Postemergence, scale 0 to 100, read-out: Plant response rating, Nutsedge, Yellow
[22] = pre-emergence, Preemergence, scale 0 to 100, read-out: Plant response rating, Nutsedge, Yellow

Question: How did the pest or weed control at 62 g/ha ([1]; 62 g ai/ha, scale 0 to 100 (0 no effect, 100 complete control), read-out: Chickweed plant response rating) turn out when CCOC(=O)c1nc(C2CC2)nc(N)c1Br [Compound 1, ethyl 6-amino-5-bromo-2-cyclopropyl-4-pyrimidinecarboxylate] was run?
Answer: Its pest or weed control at 62 g/ha is 80%.

Question: And the pest or weed control at 250 g/ha ([1]; 250 g ai/ha, scale 0 to 100, read-out: Plant response rating, Chickweed)?
Answer: Its pest or weed control at 250 g/ha is 90%.

Question: What about the pest or weed control at 62 g/ha [2, 8] of the same compound?
Answer: The pest or weed control at 62 g/ha was 65%.

Question: What about the pest or weed control at 125 g/ha [2, 8] of the same compound?
Answer: Its pest or weed control at 125 g/ha is 80%.

Question: And the pest or weed control at 250 g/ha [2, 9]?
Answer: The pest or weed control at 250 g/ha was 90%.

Question: What about the pest or weed control at 500 g/ha [2, 9] of the same compound?
Answer: The pest or weed control at 500 g/ha was 90%.

Question: And the pest or weed control at 62 g/ha ([2]; pre-emergence, Preemergence, scale 0 to 100, 0 no effect, 100 complete control, read-out: Plant response rating, Cupgrass, Woolly)?
Answer: The pest or weed control at 62 g/ha was 0%.

Question: And the pest or weed control at 125 g/ha [2, 10]?
Answer: Its pest or weed control at 125 g/ha is 60%.

Question: What about the pest or weed control at 250 g/ha [2, 10] of the same compound?
Answer: Its pest or weed control at 250 g/ha is 90%.

Question: What about the pest or weed control at 500 g/ha [2, 10] of the same compound?
Answer: Its pest or weed control at 500 g/ha is 95%.

Question: And the pest or weed control at 125 g/ha [3, 11]?
Answer: The pest or weed control at 125 g/ha was 65%.

Question: What about the pest or weed control at 500 g/ha [3, 12] of the same compound?
Answer: Its pest or weed control at 500 g/ha is 90%.

Question: And the pest or weed control at 62 g/ha [3, 11]?
Answer: Its pest or weed control at 62 g/ha is 40%.

Question: What about the pest or weed control at 250 g/ha [3, 12] of the same compound?
Answer: Its pest or weed control at 250 g/ha is 80%.

Question: And the pest or weed control at 62 g/ha ([3]; pre-emergence, Preemergence, scale 0 to 100, 0 no effect, 100 complete control, read-out: Plant response rating, Foxtail, Giant)?
Answer: Its pest or weed control at 62 g/ha is 0%.

Question: And the pest or weed control at 125 g/ha [3, 13]?
Answer: Its pest or weed control at 125 g/ha is 30%.

Question: And the pest or weed control at 250 g/ha [3, 13]?
Answer: The pest or weed control at 250 g/ha was 90%.

Question: What about the pest or weed control at 500 g/ha [3, 13] of the same compound?
Answer: The pest or weed control at 500 g/ha was 90%.

Question: And the pest or weed control at 62 g/ha [4, 14]?
Answer: Its pest or weed control at 62 g/ha is 30%.

Question: What about the pest or weed control at 125 g/ha [4, 14] of the same compound?
Answer: Its pest or weed control at 125 g/ha is 30%.

Question: And the pest or weed control at 250 g/ha [4, 15]?
Answer: The pest or weed control at 250 g/ha was 70%.

Question: What about the pest or weed control at 500 g/ha [4, 15] of the same compound?
Answer: The pest or weed control at 500 g/ha was 70%.

Question: What about the pest or weed control at 62 g/ha ([4]; pre-emergence, Preemergence, scale 0 to 100, 0 no effect, 100 complete control, read-out: Plant response rating, Johnsongrass) of the same compound?
Answer: Its pest or weed control at 62 g/ha is 0%.

Question: What about the pest or weed control at 125 g/ha [4, 16] of the same compound?
Answer: Its pest or weed control at 125 g/ha is 30%.

Question: What about the pest or weed control at 250 g/ha [4, 16] of the same compound?
Answer: Its pest or weed control at 250 g/ha is 80%.

Question: What about the pest or weed control at 500 g/ha [4, 16] of the same compound?
Answer: Its pest or weed control at 500 g/ha is 90%.

Question: What about the pest or weed control at 62 g/ha [5, 17] of the same compound?
Answer: Its pest or weed control at 62 g/ha is 90%.

Question: And the pest or weed control at 125 g/ha [5, 17]?
Answer: The pest or weed control at 125 g/ha was 100%.

Question: What about the pest or weed control at 250 g/ha [5, 18] of the same compound?
Answer: The pest or weed control at 250 g/ha was 100%.

Question: What about the pest or weed control at 500 g/ha [5, 18] of the same compound?
Answer: The pest or weed control at 500 g/ha was 100%.

Question: And the pest or weed control at 62 g/ha ([5]; pre-emergence, Preemergence, scale 0 to 100, 0 no effect, 100 complete control, read-out: Plant response rating, Pigweed)?
Answer: Its pest or weed control at 62 g/ha is 90%.

Question: And the pest or weed control at 125 g/ha [5, 19]?
Answer: Its pest or weed control at 125 g/ha is 100%.

Question: And the pest or weed control at 250 g/ha [5, 19]?
Answer: Its pest or weed control at 250 g/ha is 100%.

Question: What about the pest or weed control at 500 g/ha [5, 19] of the same compound?
Answer: Its pest or weed control at 500 g/ha is 100%.

Question: And the pest or weed control at 62 g/ha [6, 20]?
Answer: Its pest or weed control at 62 g/ha is 0%.

Question: What about the pest or weed control at 125 g/ha [6, 20] of the same compound?
Answer: Its pest or weed control at 125 g/ha is 0%.

Question: What about the pest or weed control at 250 g/ha [6, 21] of the same compound?
Answer: Its pest or weed control at 250 g/ha is 5%.

Question: And the pest or weed control at 500 g/ha [6, 21]?
Answer: The pest or weed control at 500 g/ha was 5%.

Question: What about the pest or weed control at 62 g/ha ([6]; pre-emergence, Preemergence, scale 0 to 100, 0 no effect, 100 complete control, read-out: Plant response rating, Nutsedge, Yellow) of the same compound?
Answer: The pest or weed control at 62 g/ha was 0%.

Question: And the pest or weed control at 125 g/ha [6, 22]?
Answer: The pest or weed control at 125 g/ha was 0%.

Question: And the pest or weed control at 250 g/ha [6, 22]?
Answer: The pest or weed control at 250 g/ha was 50%.

Question: What about the pest or weed control at 500 g/ha [6, 22] of the same compound?
Answer: Its pest or weed control at 500 g/ha is 50%.

Question: And the plant injury at 62 g/ha [7]?
Answer: The plant injury at 62 g/ha was 100%.
